This note sets out measurements from US10273234B2, “Compounds that are S1P modulating agents and/or ATX modulating agents” (BIOGEN MA INC., priority 2012, dated 2019).

This experiment deals with Human ATX protein (Homo sapiens (Human), UniProt Q13822). In words: ATX biochemical FRET assay with FS-3 substrate. The conditions noted are these: 1.0 μg/mL ATX, 2 μM FS-3, 2 hours at room temperature. An excerpt:
ATX (Autotaxin) is a 125 KDa glycoprotein with lysophospholipase D (LPLD) activity that generates the bioactive lipid lysophosphatidic acid (LPA) from lysophosphatidylcholine (LPC). The ATX biochemical assay utilizes a FRET (fluorescence resonance energy transfer) technology platform. The fluorescence signal of FRET substrate FS-3 is quenched due to intra-molecular FRET of a fluorophore to a non-fluorescing quencher (Ferguson, C. G., et al., Org Lett. 2006 May 11; 8(10): 2023-2026, which is incorporated by reference in its entirety). ATX catalyzes the hydrolysis of the substrate which separates the dabsyl quencher from the fluorescein reporter, which becomes fluorescent. The reaction is monitored by a SpectraMax M5 (Molecular Devices, Sunnyvale, Calif.) with at excitation wavelength 485 nm and emission wavelength […].
2×ATX assay buffer: 100 mM Tris, 280 mM NaCl, 10 mM KCl, 2 mM CaCl2, 2 mM MgCl2, pH 7.4.
Human ATX protein: expressed and purified in house. Stored at −80° C.
Substrate FS-3 (Echelon, L-2000): 100 μg in 77.74 μL H2O (1 mM stock), stored at −20° C.
Compound dilution—All compounds were provided at 10 mM in 100% DMSO. In the first well, 2 μL of 10 mM compound was added to 78 μL of DMSO (1:40 dilution). In subsequent wells 3-fold dilution (total 10 dilutions) were performed.
1×ATX assay buffer was made up with a final concentration of 1 mg/mL fatty acid free-BSA using 2×ATX assay buffer, 10 mg/ml fatty acid free-BSA and ddH2O.
ATX protein was diluted with 1×ATX assay buffer to a concentration of 1.32 μg/mL (1.32×). 38 μL was added per well to the assay plate. The final concentration of ATX in the reaction as 1.0 μg/mL.
2 μL per well of compounds was transferred to provide the desired concentration. The plate was centrifuged, then incubated at room temperature for 30 minutes on the shaker.
FS-3 was diluted with 1×ATX assay buffer to a concentration of FS-3 of 10 μM (5×). Then, 10 μL was added per well to the assay plate. The final concentration of FS-3 in the reaction was 2 μM. The plate was centrifuged. The plate was kept shaking at room temperature for 2 hours. Because FS-3 substrate is light sensitive, plates were kept covered and protected from light.
Fluorescence was measured using SpectraMax M5 (excitation at 485 nm/emission at 538 nm, top read).
For `CC(C)(C)[C@H]1CC[C@H](Oc2cccc3cc(CN4C5CCC4CC(C(=O)O)C5)ccc23)CC1` (stereo partly drawn) [Example 1, 8-((5-((trans-4-(tert-butyl)cyclohexyl)oxy)naphthalen-2-yl)methyl)-8-azabicyclo[3.2.1]octane-3-carboxylic acid], the IC50 (commonly the point on the concentration scale where inhibition reaches its midpoint) was 0.5 to 5 µM.

`CC(C)(C)[C@H]1CC[C@H](Oc2cccc3cc(CN4C5CCCC4CC(C(=O)O)C5)ccc23)CC1` (stereo partly drawn) [Example 2, 9-((5-((trans-4-(tert-butyl)cyclohexyl)oxy)naphthalen-2-yl)methyl)-9-azabicyclo[3.3.1]nonane-3-carboxylic acid] returned an IC50 of more than 5 µM.

`CC1(C)C(NCc2ccc3c(O[C@H]4CC[C@H](C(C)(C)C)CC4)cccc3c2)CC1C(=O)O` (stereo partly drawn) [Example 3, 3-(((5-((trans-4-(tert-butyl)cyclohexyl)oxy)naphthalen-2-yl)methyl)amino)-2,2-dimethylcyclobutanecarboxylic acid] displayed an IC50 of 0.5 to 5 µM.

Consider `CC(C)(C)[C@H]1CC[C@H](Oc2cccc3cc(CN4CC(C(=O)O)C4)ccc23)CC1` [Example 4, 1-((5-((trans-4-(tert-butyl)cyclohexyl)oxy)naphthalen-2-yl)methyl)azetidine-3-carboxylic acid], for which the IC50 is less than 0.5 µM.

For `CC(C)(C)[C@H]1CC[C@H](Oc2cccc3cc(CN4CC5CC(C(=O)O)CC5C4)ccc23)CC1` (stereo partly drawn) [Example 5, 2-((5-((trans-4-(tert-butyl)cyclohexyl)oxy)naphthalen-2-yl)methyl)octahydrocyclopenta[c]pyrrole-5-carboxylic acid], the IC50 was in the range of 0.5 to 5 µM.

For `CC(C)(C)[C@H]1CC[C@H](Oc2cccc3cc(CNC4CC(C(=O)O)C4)ccc23)CC1` (stereo partly drawn) [Example 7, 3-(((5-((trans-4-(tert-butyl)cyclohexyl)oxy)naphthalen-2-yl)methyl)amino)cyclobutanecarboxylic acid], the IC50 was 0.5 to 5 µM.

In turn, `CC(C)(C)[C@H]1CC[C@H](Oc2cccc3cc(CN4CCCC(C(=O)O)CC4)ccc23)CC1` (stereo partly drawn) [Example 8, 1-((5-((trans-4-(tert-butyl)cyclohexyl)oxy)naphthalen-2-yl)methyl)azepane-4-carboxylic acid] gave an IC50 of more than 5 µM.

Turning to `O=C(O)C1CCN(Cc2ccc3c(O[C@H]4CC[C@H](C(F)(F)F)CC4)cccc3c2)CC1` [Example 9, 1-((5-((trans-4-(trifluoromethyl)cyclohexyl)oxy)naphthalen-2-yl)methyl)piperidine-4-carboxylic acid], the IC50 lay within 0.5 to 5 µM.

For the compound `O=C(O)C1CCN(Cc2ccc3c(O[C@H]4CC[C@@H](C(F)(F)F)CC4)cccc3c2)CC1` [Example 10, 1-((5-((cis-4-(trifluoromethyl)cyclohexyl)oxy)naphthalen-2-yl)methyl)piperidine-4-carboxylic acid], the IC50 was more than 5 µM.

In turn, `CC(C)[C@H]1CC[C@@H](Oc2cccc3cc(CN4CCC(C(=O)O)CC4)ccc23)CC1` [Example 11, 1-((5-((cis-4-isopropylcyclohexyl)oxy)naphthalen-2-yl)methyl)piperidine-4-carboxylic acid] registered an IC50 of more than 5 µM.

Turning to `CC[C@H]1CC[C@@H](Oc2cccc3cc(CN4CCC(C(=O)O)CC4)ccc23)CC1` [Example 12, 1-((5-((cis-4-ethylcyclohexyl)oxy)naphthalen-2-yl)methyl)piperidine-4-carboxylic acid], the IC50 was 0.5 to 5 µM.

In the case of `CC(C)[C@H]1CC[C@H](Oc2cccc3cc(CN4CCC(C(=O)O)CC4)ccc23)CC1` [Example 13, 1-((5-((trans-4-isopropylcyclohexyl)oxy)naphthalen-2-yl)methyl)piperidine-4-carboxylic acid], the IC50 was in the range of 0.5 to 5 µM.

The compound `CC[C@H]1CC[C@H](Oc2cccc3cc(CN4CCC(C(=O)O)CC4)ccc23)CC1` [Example 14, 1-((5-((trans-4-ethylcyclohexyl)oxy)naphthalen-2-yl)methyl)piperidine-4-carboxylic acid] gave an IC50 of 0.5 to 5 µM.

Take `C[C@H]1CC[C@H](Oc2cccc3cc(CN4CCC(C(=O)O)CC4)ccc23)CC1` [Example 15, 1-((5-((trans-4-methylcyclohexyl)oxy)naphthalen-2-yl)methyl)piperidine-4-carboxylic acid]: the IC50 was in the range of 0.5 to 5 µM.

`C[C@H]1CC[C@H](Oc2cccc3cc(CN4CC(C(=O)O)C4)ccc23)CC1` [Example 17, 1-((5-((trans-4-methylcyclohexyl)oxy)naphthalen-2-yl)methyl)azetidine-3-carboxylic acid]: the IC50 is more than 5 µM.

`O=C(O)C1CN(Cc2ccc3c(O[C@H]4CC[C@H](c5ccccc5)CC4)cccc3c2)C1` [Example 18, 1-((5-((trans-4-phenylcyclohexyl)oxy)naphthalen-2-yl)methyl)azetidine-3-carboxylic acid] registered an IC50 of more than 5 µM.

With `CC[C@H]1CC[C@H](Oc2cccc3cc(CN4CC(C(=O)O)C4)ccc23)CC1` [Example 19, 1-((5-((trans-4-ethylcyclohexyl)oxy)naphthalen-2-yl)methyl)azetidine-3-carboxylic acid], the IC50 fell in the range of 0.5 to 5 µM.

Compound `O=C(O)C1CN(Cc2ccc3c(O[C@H]4CC[C@H](C(F)(F)F)CC4)cccc3c2)C1` [Example 20, 1-((5-((trans-4-(trifluoromethyl)cyclohexyl)oxy)naphthalen-2-yl)methyl)azetidine-3-carboxylic acid] came in with an IC50 of 0.5 to 5 µM.

For `CC(C)[C@H]1CC[C@H](Oc2cccc3cc(CN4CC(C(=O)O)C4)ccc23)CC1` [Example 21, 1-((5-((trans-4-isopropylcyclohexyl)oxy)naphthalen-2-yl)methyl)azetidine-3-carboxylic acid], the IC50 is more than 5 µM.

Compound `CCCC[C@H]1CC[C@H](Oc2cccc3cc(CN4CC(C(=O)O)C4)ccc23)CC1` [Example 22, 1-((5-((trans-4-butylcyclohexyl)oxy)naphthalen-2-yl)methyl)azetidine-3-carboxylic acid] showed an IC50 of more than 5 µM.

On to `O=C(O)C1CN(Cc2ccc3c(O[C@H]4CC[C@H](C5CCCC5)CC4)cccc3c2)C1` [Example 23, 1-((5-((trans-4-cyclopentylcyclohexyl)oxy)naphthalen-2-yl)methyl)azetidine-3-carboxylic acid], for which the IC50 is more than 5 µM.

Regarding `CC(C)(C)[C@H]1CC[C@H](Oc2cccc3cc(CN4CCC(C(=O)O)CC4)ccc23)CC1` [Example 24, 1-((5-((trans-4-(tert-butyl)cyclohexyl)oxy)naphthalen-2-yl)methyl)piperidine-4-carboxylic acid], the IC50 is less than 0.5 µM.

`CCCCCCCOc1cccc2cc(CN3CCC(C(=O)O)CC3)ccc12` [Example 25, 1-((5-(heptyloxy)naphthalen-2-yl)methyl)piperidine-4-carboxylic acid] gave an IC50 of more than 5 µM.

Regarding `C[C@H]1CC[C@@H](Oc2cccc3cc(CN4C5CCCC4CC(C(=O)O)C5)ccc23)CC1` (stereo partly drawn) [Example 26, 9-((5-((cis-4-methylcyclohexyl)oxy)naphthalen-2-yl)methyl)-9-azabicyclo[3.3.1]nonane-3-carboxylic acid], the IC50 was in the range of 0.5 to 5 µM.

`C[C@H]1CC[C@@H](Oc2cccc3cc(CN4C5CCC4CC(C(=O)O)C5)ccc23)CC1` (stereo partly drawn) [Example 27, 8-((5-((cis-4-methylcyclohexyl)oxy)naphthalen-2-yl)methyl)-8-azabicyclo[3.2.1]octane-3-carboxylic acid]: the IC50 was 0.5 to 5 µM.

The compound `C[C@H]1CC[C@@H](Oc2cccc3cc(CN4CCC(C(=O)O)CC4)ccc23)CC1` [Example 28, 1-((5-((cis-4-methylcyclohexyl)oxy)naphthalen-2-yl)methyl)piperidine-4-carboxylic acid] showed an IC50 of more than 5 µM.
